According to patent publication US20110165115A1, “SYNERGISTIC ATTRACTANTS FOR PESTIFEROUS SOCIAL INSECTS” (STERLING INTERNATIONAL INC., priority 2010, published 2011):

Columns and labels:
Details in all cases: Exp 1; HIPV added to WHY attractant in the top chamber, or WHY alone
[1] = system: V. vulgaris; assay: Field trapping Experiment 1, Rescue W•H•Y traps; format: in vivo, Vespula vulgaris
Protocol: (§1) Three field trapping experiments were carried out during late July to early August 2009, in residential and woody areas around Spokane, Wash., USA, using the newly marketed Rescue® W•H•Y traps (www.rescue.com). As used herein, the W•H•Y trap is a trap in accordance with the description of United States Patent Application Publication No. 2009/0151228. The W•H•Y trap has a top chamber and a bottom chamber. The top chamber is baited with two attractants—one of which is a solid contained in a vial (2-methyl-1-butanol) and the other a liquid mixed with water (acetic acid), herein referred to as the W•H•Y top attractant. The bottom chamber is baited with a liquid attractant (heptyl butyrate) poured onto a cotton pad, herein referred to as the W•H•Y bottom attractant. Separation of the top and bottom attractants (otherwise antagonistic to each other when released from the same chamber) in two chambers was a design feature of this trap and creates two focal attraction sources from one trap for different species of wasps, hornets, and yellowjackets. Traps were hung 1.5-2.0 m above the ground on either the fence or tree branches ca. 5 m apart within each trap line. For each trapping experiment, six sets of traps were deployed with their initial trap positions within each set being randomized. To minimize positional effects and obtain more replications, wasp collections and trap re-randomization were carried out when ≧10-20 wasps were caught in the best trap. Each replicate lasted several days depending on wasp flight activity. Captured wasps were removed from the traps and kept in the zip-bags before taking back to the laboratory for recording of the species, gender status, and catch.
(§2) Experiment 3 (Aug. 5-13, 2009) was conducted to determine the potential behavioral activity of different doses of (E)-4,8-dimethyl-1,3,7-nonatriene alone. The individual (or different doses) HIPVs were loaded into either polyethylene bags or centrifuge tube type of dispensers, and released from the top of the W•H•Y trap chamber. W•H•Y trap attractants (both top and bottom or top only) alone and water (top chamber only) were included in the test as positive and blank controls, respectively. The dispenser types, loading and release rates of the tested semiochemicals are described in Tables 1, 2 and 3.
(§3) Trap catch data were converted to proportion (P) of total captured wasps within each replicate. Data were then transformed by arcsin√P to meet the assumptions of normality and homogeneity of variances for ANOVA. Means were compared by ANOVA followed by the Ryan-Einot-Gabriel-Welsh (REGW) multiple Q test (SPSS 16.0 for Windows) at α=0.05.

[2] = system: D. arenaria; assay: Field trapping Experiment 1, Rescue W•H•Y traps; format: in vivo, Dolichovespula arenaria
Protocol: as §1
Experiment 1 (Jul. 22-30, 2009) tested ten synthetic HIPV candidates [(E)-2-hexenal, (Z)-3-hexen-1-ol, (Z)-3-hexenyl acetate, cis-ocimene, linalool, methyl salicylate, geranyl acetate, trans-β-caryophyllene, trans-β-farnesene and (E)-4,8-dimethyl-1,3,7-nonatriene], including several paper wasp EAD-active compounds (see FIG. 2 for details), to determine their potential synergistic effect on the Rescue® W•H•Y trap attractants to paper wasps, yellowjackets, and hornets. Experiment 2 (Aug. 5-13, 2009) tested behavioral responses of the paper wasps and yellowjackets to the Rescue® W•H•Y trap attractants (top attractants only) and its combination with (E)-4,8-dimethyl-1,3,7-nonatriene, one of the EAD-active and behaviorally significant HIPVs, in a dose-response fashion. Experiment 3 (Aug. 5-13, 2009) was conducted to determine the potential behavioral activity of different doses of (E)-4,8-dimethyl-1,3,7-nonatriene alone. The individual (or different doses) HIPVs were loaded into either polyethylene bags or centrifuge tube type of dispensers, and released from the top of the W•H•Y trap chamber. W•H•Y trap attractants (both top and bottom or top only) alone and water (top chamber only) were included in the test as positive and blank controls, respectively. The dispenser types, loading and release rates of the tested semiochemicals are described in Tables 1, 2 and 3.
as §3

[3] = system: V. consobrina; format: in vivo, Vespula consobrina
Protocol: as §1, with “catch. […]” for “catch.”
as §3

[4] = system: V. pensylvanica; assay: Field trapping Experiment 1, Rescue W•H•Y traps; format: in vivo, Vespula pensylvanica
Protocol: as §1, §2, §3

Row | SMILES | Total Yellowjacket Catches V. vulgaris [1] | Total Yellowjacket Catches D. arenaria [2] | Total Yellowjacket Catches V. consobrina [3] | Total Yellowjacket Catches V. pensylvanica [4]
1 | CC/C=C\CCOC(C)=O [Z-3-Hexenyl Acetate, (Z)-3-hexenyl acetate] | 34 | 8 | 1 | 311
2 | C=C/C=C(\C)CCC=C(C)C [(E)-4,8-dimethyl-1,3,7-nonatriene] | 52 | 7 | 0 | 463
3 | COC(=O)c1ccccc1O [Methyl Salicylate, methyl salicylate] | 23 | 4 | 2 | 226
4 | CC/C=C\CCO [Z-3-Hexanol, (Z)-3-hexen-1-ol] | 33 | 1 | 0 | 288
